Experimental data from patent US20260242395A1, “AMINOHETEROARYL KINASE INHIBITORS” (ALLORION THERAPEUTICS INC, priority 2022, published 2026).

Assays:
Format in all cases: biochemical
[1] = target: T1, CDK1/CyclinB (Homo sapiens, UniProt P06493); assay: CDK1/CyclinB kinase inhibitory activity (Caliper mobility shift); settings: enzyme 3 nM, ATP 20 μM, 28° C. 30 min; read-out: CDK1/Cyclin B1 IC50
T1 construct: purchased Millipore 14-450M
Procedure: CDK1/CyclinB kinase inhibitory activity (IC50): 5 μl of various dilutions of test compound in 1× kinase buffer (50 mM HEPES pH 7.5, 10 mM MgCl2, 2 mM DTT and 0.01% Brij-35) was mixed with 10 μL of CDK1/CyclinB (Millipore, 14-450M #, final concentration 3 nM in 1× Kinase buffer) in 384 plates and incubated at room temperature for 10 min. To initiate each reaction, 10 μL of peptide solution containing fluorescently-labeled-peptide 18(5-FAM-QSPKKG-CONH2) (GL, 114202 #, final concentration 3000 nM) and ATP (final concentration 20 μM) in 1× Kinase buffer was added to each of the wells containing test compound and CDK1/CyclinB mixture. The reaction is then allowed to proceed at 28° C. for 30 min and terminated by the addition of 25 μL stop buffer (100 mM HEPES pH 7.5, 50 mM EDTA, 0.2% Coating Reagent #3 (Perkin Elmer, 760050 #) and 0.015% Brij-35).
(§1) Following the kinase reaction, Caliper EZ reader II (Downstream voltages: −500V, Upstream voltages: −2250V, Base pressure −0.5 PSI, Screen pressure −1.2 PSI) was used to separate the phosphorylated (product) and the unphosphorylated (substrate) fluorescently-labeled peptide 18 based on their different mobility. Both substrate and product were measured and the ratio of these values were used to generate % conversion by Caliper EZ reader II. These conversion values were then transformed into % inhibition of kinase activity using the formula: % Inhibition=[(MA−X)/(MA−MI)]×100% where MA=conversion value of DMSO only controls, MI=conversion value of no enzyme controls and X=conversion value at any given compound dose. IC50 values were then calculated by plotting dose-response curves and then using the XLfit application in Excel software.

[2] = target: T2, CDK7/CyclinH/MAT1 (Homo sapiens, UniProt P50613); assay: CDK7/CyclinH/MAT1 kinase inhibitory activity (Caliper mobility shift); settings: enzyme 12.5 nM, ATP 70 μM, 28° C. 30 min; read-out: CDK7/Cyclin H/MAT1 IC50
T2 construct: purchased Millipore 14-476M
T2 sequence (P50613 whole entry): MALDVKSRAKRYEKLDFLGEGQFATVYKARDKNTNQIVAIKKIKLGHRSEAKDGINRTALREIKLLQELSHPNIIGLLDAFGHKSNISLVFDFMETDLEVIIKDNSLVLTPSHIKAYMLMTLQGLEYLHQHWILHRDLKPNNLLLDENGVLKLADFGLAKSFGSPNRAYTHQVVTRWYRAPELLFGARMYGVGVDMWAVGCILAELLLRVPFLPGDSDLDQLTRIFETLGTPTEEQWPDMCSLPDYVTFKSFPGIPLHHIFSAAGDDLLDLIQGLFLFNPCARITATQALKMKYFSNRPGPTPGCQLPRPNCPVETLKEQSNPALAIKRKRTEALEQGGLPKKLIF
T2 sequence (P51946 whole entry partner): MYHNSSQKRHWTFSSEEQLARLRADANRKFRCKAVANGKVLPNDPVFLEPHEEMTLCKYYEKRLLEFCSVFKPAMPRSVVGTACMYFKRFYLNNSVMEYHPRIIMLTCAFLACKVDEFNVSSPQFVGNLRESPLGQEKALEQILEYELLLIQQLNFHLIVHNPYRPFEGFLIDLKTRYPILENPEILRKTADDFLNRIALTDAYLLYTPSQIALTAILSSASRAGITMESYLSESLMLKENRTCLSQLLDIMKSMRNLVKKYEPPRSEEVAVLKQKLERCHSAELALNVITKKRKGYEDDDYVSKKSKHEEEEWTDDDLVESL
T2 sequence (P51948 whole entry partner): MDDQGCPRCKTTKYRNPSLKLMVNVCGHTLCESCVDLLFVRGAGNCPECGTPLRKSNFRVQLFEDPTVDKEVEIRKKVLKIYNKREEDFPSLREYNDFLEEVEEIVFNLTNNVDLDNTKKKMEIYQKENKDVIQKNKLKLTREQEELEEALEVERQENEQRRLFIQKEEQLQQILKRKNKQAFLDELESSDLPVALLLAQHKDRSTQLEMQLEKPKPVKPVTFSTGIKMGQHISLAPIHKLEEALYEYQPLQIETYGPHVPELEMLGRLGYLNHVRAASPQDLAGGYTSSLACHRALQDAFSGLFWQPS
Procedure: (§2) CDK7/CyclinH/MAT1 kinase inhibitory activity (IC50): 5 μl of various dilutions of test compound in 1× kinase buffer (20 mM HEPES, pH 7.5, 10 mM MgCl2, 2 mM DTT and 0.01% Triton X-100) was mixed with 10 μL of CDK7/CyclinH/MAT1 (Millipore, 14-476M #, final concentration 12.5 nM in 1× Kinase buffer) in 384 plates and incubated at room temperature for 10 min. To initiate each reaction, 10 μL of peptide solution containing fluorescently-labeled-peptide CTD3 (5-FAM-[…], GL, SY346885 #, final concentration 3000 nM) and ATP (final concentration 70 μM) in 1× Kinase buffer was added to each of the wells containing test compound and CDK7/CyclinH/MAT1 mixture. The reaction is then allowed to proceed at 28° C. for 30 min and terminated by the addition of 25 μL stop buffer (100 mM HEPES pH 7.5, 50 mM EDTA, 0.2% Coating Reagent #3 (Perkin Elmer, 760050 #) and 0.015% Brij-35).
as §1, with “the phosphoiylated” for “the phosphorylated”, “peptide CTD3” for “peptide 18”

[3] = target: T3, CDK9/CyclinT1 (Homo sapiens, UniProt P50750); assay: CDK9/CyclinT1 kinase inhibitory activity (Caliper mobility shift); settings: enzyme 12.5 nM, ATP 10M, 28° C. 30 min; read-out: CDK9/Cyclin T1 IC50
T3 construct: purchased Millipore 14-685M
T3 sequence (P50750 whole entry): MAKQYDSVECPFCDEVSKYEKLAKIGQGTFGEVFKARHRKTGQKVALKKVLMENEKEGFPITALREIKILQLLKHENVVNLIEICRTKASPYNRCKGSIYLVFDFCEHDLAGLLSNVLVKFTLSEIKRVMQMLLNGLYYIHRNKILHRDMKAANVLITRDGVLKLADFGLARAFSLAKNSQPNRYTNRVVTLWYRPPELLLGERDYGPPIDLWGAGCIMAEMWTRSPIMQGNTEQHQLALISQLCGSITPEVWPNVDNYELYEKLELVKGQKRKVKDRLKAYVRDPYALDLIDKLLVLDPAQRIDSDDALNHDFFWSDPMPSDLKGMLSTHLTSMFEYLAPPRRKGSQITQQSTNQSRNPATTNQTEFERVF
T3 sequence (O60563 whole entry partner): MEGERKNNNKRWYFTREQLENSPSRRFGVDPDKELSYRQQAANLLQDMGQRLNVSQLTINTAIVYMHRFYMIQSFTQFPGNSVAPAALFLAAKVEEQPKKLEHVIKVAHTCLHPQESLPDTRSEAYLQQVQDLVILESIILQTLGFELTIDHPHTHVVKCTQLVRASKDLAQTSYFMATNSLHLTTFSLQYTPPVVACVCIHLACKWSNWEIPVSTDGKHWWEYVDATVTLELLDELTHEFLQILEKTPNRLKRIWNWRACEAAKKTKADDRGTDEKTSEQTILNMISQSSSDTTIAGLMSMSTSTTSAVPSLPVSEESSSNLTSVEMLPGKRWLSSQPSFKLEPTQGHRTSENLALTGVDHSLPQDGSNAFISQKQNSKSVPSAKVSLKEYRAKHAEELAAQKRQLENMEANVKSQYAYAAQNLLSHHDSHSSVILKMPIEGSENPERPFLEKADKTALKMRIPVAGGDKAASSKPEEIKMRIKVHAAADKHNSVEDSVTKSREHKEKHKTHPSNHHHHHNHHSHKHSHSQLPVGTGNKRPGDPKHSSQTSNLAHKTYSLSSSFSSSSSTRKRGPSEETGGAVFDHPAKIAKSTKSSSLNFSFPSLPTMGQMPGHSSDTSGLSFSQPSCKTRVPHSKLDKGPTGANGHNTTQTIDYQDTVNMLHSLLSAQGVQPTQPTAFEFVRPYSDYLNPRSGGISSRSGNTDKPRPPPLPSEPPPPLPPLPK
Procedure: as §2, with “CDK9/CyclinT1” for “CDK7/CyclinH/MAT1”, “14-685M” for “14-476M”, “fluorescently-labeled -peptide” for “fluorescently-labeled-peptide”, “[…])” for “70 μM)”
as §1, with “CTD3” for “18”

T1 sequence (P06493 whole entry): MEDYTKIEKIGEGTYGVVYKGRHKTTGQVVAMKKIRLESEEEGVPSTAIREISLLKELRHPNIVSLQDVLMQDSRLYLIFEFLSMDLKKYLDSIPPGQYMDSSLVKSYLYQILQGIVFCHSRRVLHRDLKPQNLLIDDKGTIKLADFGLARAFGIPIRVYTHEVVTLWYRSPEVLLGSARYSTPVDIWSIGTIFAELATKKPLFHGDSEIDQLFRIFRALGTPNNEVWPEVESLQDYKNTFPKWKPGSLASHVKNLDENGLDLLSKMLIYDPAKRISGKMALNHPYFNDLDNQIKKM
T1 sequence (P14635 whole entry partner): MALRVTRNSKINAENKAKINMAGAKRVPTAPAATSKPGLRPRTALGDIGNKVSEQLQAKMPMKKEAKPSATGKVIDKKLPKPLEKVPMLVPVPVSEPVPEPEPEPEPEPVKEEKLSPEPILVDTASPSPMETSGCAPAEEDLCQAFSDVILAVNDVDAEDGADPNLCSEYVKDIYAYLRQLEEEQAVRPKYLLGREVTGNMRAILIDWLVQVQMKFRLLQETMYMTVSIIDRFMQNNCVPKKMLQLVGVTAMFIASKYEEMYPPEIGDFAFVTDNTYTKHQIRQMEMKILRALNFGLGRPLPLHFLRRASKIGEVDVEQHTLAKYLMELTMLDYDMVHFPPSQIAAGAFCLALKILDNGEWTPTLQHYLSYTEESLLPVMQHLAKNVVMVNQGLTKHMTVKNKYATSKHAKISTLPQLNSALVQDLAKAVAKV

SMILES | IC50 [1] [nM] | IC50 [2] [nM] | IC50 [3] [nM]
Cc1nc2c(F)cc(-c3nc(N[C@@H]4CCOC[C@H]4O)ncc3Cl)cc2c(C)c1[C@H](C)O (single isomer, unassigned) [Example 15b] | 100 to 1000 | 100 to 1000 | 100 to 1000
CNC(C)c1cnc2c(F)cc(-c3nc(N[C@@H]4CCOC[C@H]4O)ncc3Cl)cc2c1 (single isomer, unassigned) [Example 32a] | 100 to 1000 | ≥ 1000 | 100 to 1000
CC1Cc2cnc3c(F)cc(-c4nc(N[C@@H]5CCOC[C@H]5O)ncc4Cl)cc3c2CN1 (single isomer, unassigned) [Example 34a] | 100 to 1000 | 100 to 1000 | 10 to 100
Cc1nc2c(F)cc(-c3nc(N[C@@H]4CCOC[C@H]4O)ncc3Cl)cc2c(Cl)c1C(C)O (single isomer, unassigned) [Example 35a] | 100 to 1000 | ≥ 1000 | 100 to 1000
Cc1nc2c(F)cc(-c3nc(N[C@@H]4CCOC[C@H]4O)ncc3Cl)cc2c(Cl)c1C(C)O (single isomer, unassigned) [Example 35b] | ≥ 1000 | ≥ 1000 | ≥ 1000
CNC(C)c1cc2cc(-c3nc(N[C@@H]4CCOC[C@H]4O)ncc3Cl)cc(F)c2nc1C (single isomer, unassigned) [Example 45b] | ≥ 1000 | ≥ 1000 | ≥ 1000
Cc1nc2c(F)cc(-c3nc(N[C@@H]4CCOC[C@H]4O)ncc3F)cc2c(C)c1C(C)O (single isomer, unassigned) [Example 81b] | 100 to 1000 | 100 to 1000 | 100 to 1000
Cc1c(C(C)O)cnc2c(F)cc(-c3nc(N[C@@H]4CCOC[C@H]4O)ncc3Cl)cc12 (single isomer, unassigned) [Example 88a] | 100 to 1000 | 100 to 1000 | 100 to 1000
CC(C)(O)c1cnc2c(F)cc(-c3nc(N[C@@H]4CCOC[C@H]4O)ncc3Cl)cc2c1 [Example 1, (3S,4R)-4-((5-chloro-4-(8-fluoro-3-(2-hydroxypropan-2-yl)quinolin-6-yl)pyrimidin-2-yl)amino)tetrahydro-2H-pyran-3-ol] | ≥ 1000 | ≥ 1000 | ≥ 1000
Cc1nc2c(F)cc(-c3nc(N[C@@H]4CCOC[C@H]4O)ncc3Cl)cc2cc1C(C)(C)O [Example 5, (3S,4R)-4-((5-chloro-4-(8-fluoro-3-(2-hydroxypropan-2-yl)-2-methylquinolin-6-yl)pyrimidin-2-yl)amino)tetrahydro-2H-pyran-3-ol] | ≥ 1000 | ≥ 1000 | 100 to 1000
Cc1c(C(C)(C)O)cnc2c(F)cc(-c3nc(N[C@@H]4CCOC[C@H]4O)ncc3Cl)cc12 [Example 7, (3S,4R)-4-((5-chloro-4-(8-fluoro-3-(2-hydroxypropan-2-yl)-4-methylquinolin-6-yl)pyrimidin-2-yl)amino)tetrahydro-2H-pyran-3-ol] | 100 to 1000 | ≥ 1000 | 100 to 1000
O[C@@H]1COCC[C@H]1Nc1ncc(Cl)c(-c2cc(F)c3ncc4c(c3c2)CNCC4)n1 [Example 9, (3S,4R)-4-((5-chloro-4-(7-fluoro-1,2,3,4-tetrahydrobenzo[c][2,6]naphthyridin-9-yl)pyrimidin-2-yl)amino)tetrahydro-2H-pyran-3-ol] | 100 to 1000 | 100 to 1000 | 100 to 1000

Continued, values first:

IC50 [1] [nM] | IC50 [2] [nM] | IC50 [3] [nM] | SMILES
100 to 1000 | ≥ 1000 | 100 to 1000 | Cc1nc2c(F)cc(-c3nc(N[C@@H]4CCOC[C@H]4O)ncc3Cl)cc2c(C)c1[C@@H](C)O (single isomer, unassigned) [Example 15a]
100 to 1000 | 100 to 1000 | 100 to 1000 | O[C@@H]1COCC[C@H]1Nc1ncc(Cl)c(-c2cc(F)c3ncc4c(c3c2)C2CCC(C4)N2)n1 (single isomer, unassigned) [Example 20b]
≥ 1000 | ≥ 1000 | 100 to 1000 | CC1Cc2cnc3c(F)cc(-c4nc(N[C@@H]5CCOC[C@H]5O)ncc4Cl)cc3c2CN1 (single isomer, unassigned) [Example 34b]
 | 100 to 1000 | 100 to 1000 | CC(O)c1cnc2c(F)cc(-c3nc(N[C@@H]4CCOC[C@H]4O)ncc3Cl)cc2c1Cl (single isomer, unassigned) [Example 40a]
100 to 1000 | ≥ 1000 | 100 to 1000 | CNC(C)c1cc2cc(-c3nc(N[C@@H]4CCOC[C@H]4O)ncc3Cl)cc(F)c2nc1C (single isomer, unassigned) [Example 45a]
100 to 1000 | ≥ 1000 | 100 to 1000 | Cc1nc2c(F)cc(-c3nc(N[C@@H]4CCOC[C@H]4O)ncc3Cl)cc2cc1C1CCCN1 (single isomer, unassigned) [Example 57a]
100 to 1000 | ≥ 1000 | 100 to 1000 | Cc1nc2c(F)cc(-c3nc(N[C@@H]4CCOC[C@H]4O)ncc3Cl)cc2cc1C(C)NC1CC1 (single isomer, unassigned) [Example 73b]
100 to 1000 | 100 to 1000 | 10 to 100 | Cc1nc2c(F)cc(-c3nc(N[C@@H]4CCOC[C@H]4O)ncc3F)cc2c(C)c1C(C)O (single isomer, unassigned) [Example 81a]
≥ 1000 | ≥ 1000 | ≥ 1000 | Cc1c(C(C)NC2CC2)cnc2c(F)cc(-c3nc(N[C@@H]4CCOC[C@H]4O)ncc3Cl)cc12 (single isomer, unassigned) [Example 91b]
100 to 1000 | 100 to 1000 | 100 to 1000 | CC1(C)NCc2c(cnc3c(F)cc(-c4nc(N[C@@H]5CCOC[C@H]5O)ncc4F)cc23)C1O (single isomer, unassigned) [Example 106b]
10 to 100 | 10 to 100 | 10 to 100 | O[C@@H]1COCC[C@H]1Nc1ncc(Cl)c(-c2cc(F)c3ncc4c(c3c2)CCNC4)n1 [Example 8, (3S,4R)-4-((5-chloro-4-(7-fluoro-1,2,3,4-tetrahydrobenzo[c][2,7]naphthyridin-9-yl)pyrimidin-2-yl)amino)tetrahydro-2H-pyran-3-ol]
